Results taken from patent US11464780B2, “Pyrazolopyrimidine derivative and use thereof” (Simcere Pharmaceutical Co. Ltd., priority 2018, dated 2022).
pIC50: −log10 of the molar value. Like-named read-outs stand apart in the source and are kept apart here.

Experiments:
[1] = target: T1, Ros-G2032R (Homo sapiens, UniProt P08922, G2032R); assay: Kinase inhibitory activity (33P-ATP filter binding, Reaction Biology Corp.); type: biochemical; conditions: read-out: The half maximal inhibitory concentration IC50 on the kinases, Ros-G2032R
T1 construct: purchased Reaction Biology Corp. (contract assay)
Method: (§1) The mixture was incubated at room temperature for 20 minutes. To the reaction mixture was added a certain concentration of ^33P-ATP to initiate the reaction, and then the mixture was incubated at room temperature for 120 minutes. The radioactivities of the reactants were determined by the method of filter binding. The final kinase activity was expressed as the ratio of the remaining kinase activity in the test sample to the kinase activity in the DMSO control group. The dose-effect curve was fitted by GraphPad software and the IC50 was calculated.

[2] = target: T2, TrkA (Homo sapiens, UniProt P04629); assay: as above; type: biochemical; conditions: read-out: The half maximal inhibitory concentration IC50 on the kinases, TrkA
T2 construct: purchased Reaction Biology Corp. (contract assay)
Method: as §1

[3] = target: T3, Ba/F3 SLC34A2-ROS1-WT stably transfected cell line (Homo sapiens, UniProt P08922); assay: Cell proliferation inhibition (CellTiter-Glo); type: cell-based; conditions: 72 hours, read-out: The half maximal inhibitory concentration IC50 against cells, Ba/F3 SLC34A2-ROS1-WT
T3 construct: fused on or other part: O95436 (Sodium-dependent phosphate transport protein 2B)

[4] = target: T4, Ba/F3 LMNA-NTRK1-G595R stably transfected cell line (Homo sapiens, UniProt P04629, G595R, cells depend on it); assay: Cell proliferation inhibition (CellTiter-Glo); type: cell-based; conditions: 72 hours, read-out: The half maximal inhibitory concentration IC50 against cells, Ba/F3 LMNA-NTRK1-G595R
T4 construct: fused on or other part: P02545 (Prelamin-A/C)

[5] = In vivo pharmacokinetic test in mice; parameters: species or system male CD-1 mice; conditions: for Vd / AUC(0-t) / half-life / bioavailability / Cmax / Tmax: male, CD-1, mouse, plasma; for Vd: read-out: Apparent volume of distribution Vd; for AUC(0-t): read-out: Area under the curve AUC0-last; for half-life: read-out: Half life T1/2 (converted); for bioavailability: PO dose of 10 mL/kg vs IV 3 mg/kg, read-out: Bioavailability F %; for Cmax: read-out: Peak concentration Cmax; for Tmax: read-out: Time of peak concentration Tmax
Method: Experimental object: male CD-1 mice aged 7-9 weeks were used as the experimental animals, the LC/MS/MS method was used to determine the drug concentrations in plasma at different time points after single intravenous (IV) and intragastric (PO) administration of the compounds, in vivo pharmacokinetic behaviors of the compounds of the present disclosure in mice were studied, and pharmacokinetic characteristics thereof were evaluated. Drug preparation: The compounds were prepared into clear solutions with 5% DMSO+10% solutol+85% water as solvent for administration in IV (intravenous) group and PO (intragastric). The dose of the compounds: IV dose of 3 mg/kg, and PO dose of […].

[6] = target: T5, Ba/F3 LMNA-NTRK1-F589L stably transfected cell line (Homo sapiens, UniProt P04629, F589L, cells depend on it); assay: Cell proliferation inhibition (CellTiter-Glo); type: cell-based; conditions: 72 hours, read-out: The half maximal inhibitory concentration IC50 against cells, Ba/F3 LMNA-NTRK1-F589L
T5 construct: fused on or other part: P02545 (Prelamin-A/C)

[7] = target: T6, BaF3 ETV6-NTRK3-G623R stably transfected cell line (Homo sapiens, UniProt Q16288, G623R, cells depend on it); assay: Cell proliferation inhibition (CellTiter-Glo); type: cell-based; conditions: 72 hours, read-out: The half maximal inhibitory concentration IC50 against cells, BaF3 ETV6-NTRK3-G623R
T6 construct: fused on or other part: P41212 (Transcription factor ETV6)

[8] = target: T7, Ba/F3 LMNA-NTRK1-WT stably transfected cell line (Homo sapiens, UniProt P04629); assay: Cell proliferation inhibition (CellTiter-Glo); type: cell-based; conditions: 72 hours, read-out: The half maximal inhibitory concentration IC50 against cells, Ba/F3 LMNA-NTRK1-WT
T7 construct: fused on or other part: P02545 (Prelamin-A/C)
Method: Adenosine Tri-Phosphate (ATP) is an energy carrier shared by various life activities in nature, and is the smallest unit of energy storage and transfer. The CellTiter-Glo™ cell viability detection kit uses luciferase as the detection substance, and luciferase requires the participation of ATP during the process of luminescence. CellTiter-Glo™ reagent is added to cell culture medium, and the luminescent intensity is measured. The luminescent signal is directly proportional to the amount of ATP in the system, and ATP is positively related to the number of living cells. Therefore, by using the CellTiter-Glo kit to detect ATP content, cell proliferation can be detected. In this assay, the cell line is Ba/F3 LMNA-NTRK1-WT stably transfected cell line, with 5000 cells/well.
IC50 Determination Process:
1. Cell Culture and Inoculation
a) the cells in the logarithmic growth phase were harvested, and counted with a platelet counter. Trypan blue exclusion method was used to detect cell viability to ensure the cell viability was no less than 90%.
b) the cell concentration was adjusted; 90 μL of cell suspension was added respectively into a 96-well plate.
c) the cells in the 96-well plates was cultured under conditions of 37° C., 5% CO2 and 95% humidity overnight.
2. Drug Dilution and Administration
a) 10-fold drug solutions were prepared, the highest concentration was 10 μM, 9 concentrations, 3-fold diluted (refer to Appendix I). 10 μL of each drug solution was added to each well of the 96-well plate seeded with the cells in triplicate.
b) the cells in the 96-well plate added with the drug were cultured under conditions of 37° C., 5% CO2 and 95% humidity for 72 hours, and then CTG (cell proliferation) was performed.
a) CellTiter-Glo™ reagent was thawed, and the cell plate was equilibrated at room temperature for 30 minutes.
b) CellTiter-Glo™ reagent of a same volume was added to each well;
c) the cell plate was shaken on an orbital shaker for 5 minutes to lyse the cells.
d) the cell plate was placed at room temperature for 20 minutes to stabilize the luminescent signal.
e) the luminescent intensity was read.
GraphPad Prism 5.0 software was used to analyze the data, nonlinear S-curve regression was used to fit the data to obtain dose-effect curve, and IC50 value was calculated therefrom.

[9] = target: T8, Ba/F3 SLC34A2-ROS1-G2032R stably transfected cell line (Homo sapiens, UniProt P08922, G2032R, cells depend on it); assay: Cell proliferation inhibition (CellTiter-Glo); type: cell-based; conditions: 72 hours, read-out: The half maximal inhibitory concentration IC50 against cells, Ba/F3 SLC34A2-ROS1-G2032R
T8 construct: fused on or other part: O95436 (Sodium-dependent phosphate transport protein 2B)

[10] = target: T9, TrkC (Homo sapiens, UniProt Q16288); assay: Kinase inhibitory activity (33P-ATP filter binding, Reaction Biology Corp.); type: biochemical; conditions: read-out: The half maximal inhibitory concentration IC50 on the kinases, TrkC
T9 construct: purchased Reaction Biology Corp. (contract assay)
Method: as §1

[11] = target: T10, Ros1 (Homo sapiens, UniProt P08922); assay: as above; type: biochemical; conditions: read-out: The half maximal inhibitory concentration IC50 on the kinases, Ros1
T10 construct: purchased Reaction Biology Corp. (contract assay)
Method: as §1

[12] = target: T11, TrkA-G667C (Homo sapiens, UniProt P04629, G667C); assay: as above; type: biochemical; conditions: read-out: The half maximal inhibitory concentration IC50 on the kinases, TrkA-G667C
T11 construct: purchased Reaction Biology Corp. (contract assay)
Method: as §1

[13] = target: T12, TrkA-G595R (Homo sapiens, UniProt P04629, G595R); assay: as above; type: biochemical; conditions: read-out: The half maximal inhibitory concentration IC50 on the kinases, TrkA-G595R
T12 construct: purchased Reaction Biology Corp. (contract assay)
Method: as §1

[14] = target: T13, ALK (Homo sapiens, UniProt Q9UM73); assay: as above; type: biochemical; conditions: read-out: The half maximal inhibitory concentration IC50 on the kinases, ALK
T13 construct: purchased Reaction Biology Corp. (contract assay)
Method: The inhibitory activities of the compounds on TrkA, TrkC, ALK, Ros1 and other kinases were determined by Reaction Biology Corp. To reaction buffer (20 mM Hepes (pH 7.5), 10 mM MgCl2, 1 mM EGTA, 0.02% Brij35, 0.02 mg/mL BSA, 0.1 mM Na3VO4, 2 mM DTT, 1% DMSO) were sequentially added a certain concentration of substrate, coenzyme factor, kinase and test compound (10 concentrations, 3-fold serial dilutions, DMSO at a final concentration of […]), and the mixture was mixed evenly. The mixture was incubated at room temperature for 20 minutes. To the reaction mixture was added a certain concentration of ^33P-ATP to initiate the reaction, and then the mixture was incubated at room temperature for 120 minutes. The radioactivities of the reactants were determined by the method of filter binding. The final kinase activity was expressed as the ratio of the remaining kinase activity in the test sample to the kinase activity in the DMSO control group. The dose-effect curve was fitted by GraphPad software and the IC50 was calculated.

T9 sequence (Q16288 32-839): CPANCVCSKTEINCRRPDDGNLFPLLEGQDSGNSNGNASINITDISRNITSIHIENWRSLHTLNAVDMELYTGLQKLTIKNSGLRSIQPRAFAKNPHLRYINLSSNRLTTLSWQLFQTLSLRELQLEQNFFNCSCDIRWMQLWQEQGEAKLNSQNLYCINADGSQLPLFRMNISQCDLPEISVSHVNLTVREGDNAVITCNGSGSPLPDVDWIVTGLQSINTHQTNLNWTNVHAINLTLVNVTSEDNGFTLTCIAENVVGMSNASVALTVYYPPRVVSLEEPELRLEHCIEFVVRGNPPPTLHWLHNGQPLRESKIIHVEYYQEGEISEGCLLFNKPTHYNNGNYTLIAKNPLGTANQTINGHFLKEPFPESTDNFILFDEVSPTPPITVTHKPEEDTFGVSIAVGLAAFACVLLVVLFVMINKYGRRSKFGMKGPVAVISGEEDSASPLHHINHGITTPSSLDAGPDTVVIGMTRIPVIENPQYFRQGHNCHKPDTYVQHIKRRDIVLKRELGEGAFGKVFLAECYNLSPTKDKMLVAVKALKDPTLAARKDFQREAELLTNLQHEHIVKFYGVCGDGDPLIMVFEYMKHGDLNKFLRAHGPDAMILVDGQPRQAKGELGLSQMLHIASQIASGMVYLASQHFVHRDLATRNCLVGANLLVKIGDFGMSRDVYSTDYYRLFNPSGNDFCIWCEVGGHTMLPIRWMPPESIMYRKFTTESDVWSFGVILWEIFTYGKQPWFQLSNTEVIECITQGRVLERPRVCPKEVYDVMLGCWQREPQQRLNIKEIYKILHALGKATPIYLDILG
T11 sequence (P04629 33-796 G667C): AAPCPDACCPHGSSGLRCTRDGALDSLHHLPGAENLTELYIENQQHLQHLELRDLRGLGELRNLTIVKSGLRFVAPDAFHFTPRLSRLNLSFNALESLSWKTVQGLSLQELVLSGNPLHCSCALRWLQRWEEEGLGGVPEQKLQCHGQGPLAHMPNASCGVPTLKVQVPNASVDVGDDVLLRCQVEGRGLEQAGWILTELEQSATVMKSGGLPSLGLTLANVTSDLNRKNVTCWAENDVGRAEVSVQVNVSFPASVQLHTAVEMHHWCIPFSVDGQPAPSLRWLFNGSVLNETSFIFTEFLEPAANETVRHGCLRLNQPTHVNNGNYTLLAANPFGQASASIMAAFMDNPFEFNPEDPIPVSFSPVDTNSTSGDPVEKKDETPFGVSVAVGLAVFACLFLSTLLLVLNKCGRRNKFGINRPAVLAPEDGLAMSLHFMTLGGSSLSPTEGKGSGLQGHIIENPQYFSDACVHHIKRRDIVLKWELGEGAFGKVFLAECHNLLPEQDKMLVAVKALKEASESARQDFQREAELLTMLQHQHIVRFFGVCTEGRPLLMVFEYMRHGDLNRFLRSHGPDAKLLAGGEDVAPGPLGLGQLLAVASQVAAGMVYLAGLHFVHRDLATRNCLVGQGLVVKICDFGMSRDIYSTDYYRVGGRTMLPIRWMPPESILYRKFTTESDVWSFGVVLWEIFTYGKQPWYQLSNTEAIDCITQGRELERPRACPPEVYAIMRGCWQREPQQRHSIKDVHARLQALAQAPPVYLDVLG
T13 sequence (Q9UM73 19-1620): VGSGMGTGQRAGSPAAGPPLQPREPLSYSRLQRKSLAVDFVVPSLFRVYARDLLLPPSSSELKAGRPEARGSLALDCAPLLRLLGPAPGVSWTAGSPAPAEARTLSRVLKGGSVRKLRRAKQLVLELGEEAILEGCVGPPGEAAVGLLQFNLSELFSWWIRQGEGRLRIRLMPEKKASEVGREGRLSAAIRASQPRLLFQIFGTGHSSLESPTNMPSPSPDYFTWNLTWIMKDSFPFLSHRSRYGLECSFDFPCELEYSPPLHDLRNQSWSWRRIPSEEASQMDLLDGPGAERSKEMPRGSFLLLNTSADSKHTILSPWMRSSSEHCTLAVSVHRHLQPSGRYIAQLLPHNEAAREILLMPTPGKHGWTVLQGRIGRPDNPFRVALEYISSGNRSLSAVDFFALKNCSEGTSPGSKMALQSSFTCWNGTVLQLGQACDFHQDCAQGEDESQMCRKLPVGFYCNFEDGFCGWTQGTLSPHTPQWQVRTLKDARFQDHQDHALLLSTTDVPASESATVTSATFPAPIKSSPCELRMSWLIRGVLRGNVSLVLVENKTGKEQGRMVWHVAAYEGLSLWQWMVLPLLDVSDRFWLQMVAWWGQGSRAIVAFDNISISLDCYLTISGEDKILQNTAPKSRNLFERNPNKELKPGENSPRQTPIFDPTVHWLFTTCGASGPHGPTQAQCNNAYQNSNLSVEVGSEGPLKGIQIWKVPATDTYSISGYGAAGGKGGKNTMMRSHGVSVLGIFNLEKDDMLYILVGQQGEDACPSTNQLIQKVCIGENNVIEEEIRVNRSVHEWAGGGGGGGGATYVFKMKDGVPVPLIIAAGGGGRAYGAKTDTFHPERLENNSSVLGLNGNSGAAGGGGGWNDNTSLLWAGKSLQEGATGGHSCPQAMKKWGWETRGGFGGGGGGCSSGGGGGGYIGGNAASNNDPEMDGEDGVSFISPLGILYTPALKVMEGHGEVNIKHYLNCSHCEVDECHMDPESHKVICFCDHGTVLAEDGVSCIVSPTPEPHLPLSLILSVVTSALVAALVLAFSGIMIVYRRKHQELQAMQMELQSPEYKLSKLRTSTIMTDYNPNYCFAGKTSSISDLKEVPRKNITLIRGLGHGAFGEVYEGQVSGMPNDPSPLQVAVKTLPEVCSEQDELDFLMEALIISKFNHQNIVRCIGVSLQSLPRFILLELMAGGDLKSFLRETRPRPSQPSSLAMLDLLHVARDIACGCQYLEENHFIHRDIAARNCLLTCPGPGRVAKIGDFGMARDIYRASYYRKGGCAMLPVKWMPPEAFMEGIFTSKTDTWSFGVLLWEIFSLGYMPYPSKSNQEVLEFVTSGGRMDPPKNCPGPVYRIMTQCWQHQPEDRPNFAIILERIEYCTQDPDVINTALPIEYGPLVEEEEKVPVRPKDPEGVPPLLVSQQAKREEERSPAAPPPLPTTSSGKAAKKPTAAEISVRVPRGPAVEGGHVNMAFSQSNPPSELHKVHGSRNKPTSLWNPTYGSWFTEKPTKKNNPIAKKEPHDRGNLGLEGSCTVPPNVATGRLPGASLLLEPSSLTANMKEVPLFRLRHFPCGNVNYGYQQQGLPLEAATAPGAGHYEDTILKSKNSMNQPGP
T7 sequence (P04629 whole entry, stated change not applied, the tested form may be a part): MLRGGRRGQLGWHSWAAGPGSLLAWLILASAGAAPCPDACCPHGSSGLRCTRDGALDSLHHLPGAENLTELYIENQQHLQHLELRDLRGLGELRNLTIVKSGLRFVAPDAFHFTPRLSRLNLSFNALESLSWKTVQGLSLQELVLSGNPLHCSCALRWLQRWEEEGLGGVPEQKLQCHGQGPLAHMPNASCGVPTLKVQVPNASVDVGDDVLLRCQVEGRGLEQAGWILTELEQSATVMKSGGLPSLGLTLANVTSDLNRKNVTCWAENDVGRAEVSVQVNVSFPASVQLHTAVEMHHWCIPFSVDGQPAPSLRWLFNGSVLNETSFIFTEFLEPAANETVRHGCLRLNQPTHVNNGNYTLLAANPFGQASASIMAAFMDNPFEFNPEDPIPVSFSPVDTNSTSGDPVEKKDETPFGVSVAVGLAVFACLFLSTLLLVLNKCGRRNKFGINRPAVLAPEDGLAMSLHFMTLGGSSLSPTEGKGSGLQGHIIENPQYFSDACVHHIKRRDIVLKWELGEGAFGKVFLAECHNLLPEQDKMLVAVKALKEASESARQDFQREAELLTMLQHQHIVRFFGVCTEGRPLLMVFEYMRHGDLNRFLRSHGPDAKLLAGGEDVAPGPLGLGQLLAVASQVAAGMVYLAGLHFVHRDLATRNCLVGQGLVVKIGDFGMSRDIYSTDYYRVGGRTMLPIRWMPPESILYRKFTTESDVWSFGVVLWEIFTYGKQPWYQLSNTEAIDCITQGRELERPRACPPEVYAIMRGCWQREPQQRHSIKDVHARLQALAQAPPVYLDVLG
T2 sequence (P04629 33-796): as the sequence (P04629 33-796 G667C) above, with C635G counted along it
T4 sequence (P04629 whole entry G595R, the tested form may be a part): as the sequence (P04629 whole entry, stated change not applied, the tested form may be a part) above, with G595R counted along it
T6 sequence (Q16288 whole entry G623R, the tested form may be a part): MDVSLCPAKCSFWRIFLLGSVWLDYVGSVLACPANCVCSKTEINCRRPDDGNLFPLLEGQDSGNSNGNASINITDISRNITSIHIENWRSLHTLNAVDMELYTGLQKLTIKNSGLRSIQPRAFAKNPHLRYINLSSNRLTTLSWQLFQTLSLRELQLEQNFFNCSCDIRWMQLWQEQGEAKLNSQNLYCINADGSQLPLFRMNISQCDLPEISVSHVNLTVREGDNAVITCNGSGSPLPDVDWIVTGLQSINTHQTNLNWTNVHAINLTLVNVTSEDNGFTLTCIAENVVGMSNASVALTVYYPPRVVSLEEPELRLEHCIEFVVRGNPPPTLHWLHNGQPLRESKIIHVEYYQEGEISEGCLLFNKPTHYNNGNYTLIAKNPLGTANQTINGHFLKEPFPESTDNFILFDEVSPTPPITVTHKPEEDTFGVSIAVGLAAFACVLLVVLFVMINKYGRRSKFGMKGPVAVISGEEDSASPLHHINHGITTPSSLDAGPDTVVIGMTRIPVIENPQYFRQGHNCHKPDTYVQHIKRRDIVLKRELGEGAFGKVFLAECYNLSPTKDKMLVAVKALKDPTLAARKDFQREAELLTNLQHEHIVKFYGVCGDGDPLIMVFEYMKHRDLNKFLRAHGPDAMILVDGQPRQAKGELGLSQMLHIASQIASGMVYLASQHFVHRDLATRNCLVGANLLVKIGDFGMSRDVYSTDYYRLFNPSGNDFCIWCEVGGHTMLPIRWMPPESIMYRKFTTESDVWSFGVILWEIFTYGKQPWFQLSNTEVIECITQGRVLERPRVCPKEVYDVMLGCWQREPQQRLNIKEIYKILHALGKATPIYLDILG
T12 sequence (P04629 33-796 G595R): as the sequence (P04629 33-796 G667C) above, with G563R, C635G counted along it
T5 sequence (P04629 whole entry F589L, the tested form may be a part): as the sequence (P04629 whole entry, stated change not applied, the tested form may be a part) above, with F589L counted along it

Row | Compound | pIC50 [1] | pIC50 [2] | GI50 [3] [nM] | GI50 [4] [nM] | Apparent clearance Cl ([5]; IV dose of 3 mg/kg) [mL/min/kg] | Vd ([5]; IV dose of 3 mg/kg) [L/kg] | AUC(0-t) ([5]; IV dose of 3 mg/kg) [µM·h] | half-life ([5]; IV dose of 3 mg/kg) [min] | bioavailability [5] [%] | AUC(0-t) ([5]; PO dose of 10 mL/kg) [µM·h] | Cmax ([5]; PO dose of 10 mL/kg) [µM] | Tmax ([5]; PO dose of 10 mL/kg) [min] | GI50 [7] [nM] | GI50 [8] [nM] | GI50 [9] [nM] | pIC50 [10] | pIC50 [11] | pIC50 [12] | pIC50 [13] | pIC50 [14] | further results
1 | O=C1N[C@@H]2COCC[C@@H]2Oc2ncc(F)cc2[C@H]2CCON2c2ccn3ncc1c3n2 [WX010B] | 9.21 | 8.51 | 10.4 | 20.9 | 8.4 | 0.68 | 14 | 55.2 | 107 | 49.2 | 13 | 30 | 19.5 | 5.8 | 58.1 |  |  |  |  |  | GI50 [6]: 4.26 nM
2 | O=C1N[C@@H]2CCC[C@@H]2Oc2ncc(F)cc2[C@H]2CCON2c2ccn3ncc1c3n2 [WX007A] | 9.14 | 8.55 | 10.1 | 12.4 | 5.50 | 0.47 | 22.1 | 52.8 | 76 | 54.9 | 22.6 | 22.8 | 69.1 | 5.8 | 165 | 10.30 | 9.89 | 8.55 | 8.29 | 7.94 | 
3 | C[C@@H]1COc2ncc(F)cc2[C@H]2CCON2c2ccn3ncc(c3n2)C(=O)N1 [WX004A] |  | 7.84 |  | 14.5 | 10.4 | 0.75 | 12.5 | 44.4 | 72 | 29.6 | 10.5 | 30 | 2.1 | 7.69 |  | 9.39 | 9.03 | 7.38 | 7.41 | 6.96 | 
4 | C[C@H]1CNC(=O)c2cnn3ccc(nc23)N2OCC[C@@H]2c2cc(F)cnc2O1 [WX005B] | 8.58 | 7.88 | 17.9 | 9.1 | 12.4 | 0.44 | 10.5 | 30 | 85 | 29.4 | 17.2 | 22.8 | 5.6 | 5.73 | 259 | 10.05 | 9.46 | 7.58 | 7.97 | 7.71 | 
